molecular target: T1, human Werner helicase (WRN-BV08, Uniprot Q14191, amino acids 517-1235 with L1074F point mutation) (Homo sapiens, UniProt Q14191, L1074F); test: WRN (BV08) ADP-Glo Assay; type: biochemical; details: 0.15 nM WRN, 5 μM ATP, 0.1 nM DNA duplex, 15 min preincubation, 60 min at 25° C., pH 7.5, 1% DMSO; read-out: ADP-Glo_hWRN_IC50
T1 construct: Uniprot Q14191, amino acids 517-1235 with L1074F point mutation; TEV-cleavable 8×His (C, cleaved yes); made in house; host or cells: Sf9 insect cells (baculovirus)
How it was run: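 ADP produced by WRN helicase fragment 517-1235 (L1074F, baculovirus/Sf9, untagged) read by ADP-Glo luminescence after 60 min at 25 °C with 5 μM ATP and 0.1 nM duplex DNA, following 15 min compound preincubation. Final enzyme 0.15 nM in Bicine pH 7.5 buffer, 1% DMSO; 20 μM NSC-617145 defined full inhibition.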

T1 sequence (Q14191 with tags, fused parts or gaps L1074F limits assumed): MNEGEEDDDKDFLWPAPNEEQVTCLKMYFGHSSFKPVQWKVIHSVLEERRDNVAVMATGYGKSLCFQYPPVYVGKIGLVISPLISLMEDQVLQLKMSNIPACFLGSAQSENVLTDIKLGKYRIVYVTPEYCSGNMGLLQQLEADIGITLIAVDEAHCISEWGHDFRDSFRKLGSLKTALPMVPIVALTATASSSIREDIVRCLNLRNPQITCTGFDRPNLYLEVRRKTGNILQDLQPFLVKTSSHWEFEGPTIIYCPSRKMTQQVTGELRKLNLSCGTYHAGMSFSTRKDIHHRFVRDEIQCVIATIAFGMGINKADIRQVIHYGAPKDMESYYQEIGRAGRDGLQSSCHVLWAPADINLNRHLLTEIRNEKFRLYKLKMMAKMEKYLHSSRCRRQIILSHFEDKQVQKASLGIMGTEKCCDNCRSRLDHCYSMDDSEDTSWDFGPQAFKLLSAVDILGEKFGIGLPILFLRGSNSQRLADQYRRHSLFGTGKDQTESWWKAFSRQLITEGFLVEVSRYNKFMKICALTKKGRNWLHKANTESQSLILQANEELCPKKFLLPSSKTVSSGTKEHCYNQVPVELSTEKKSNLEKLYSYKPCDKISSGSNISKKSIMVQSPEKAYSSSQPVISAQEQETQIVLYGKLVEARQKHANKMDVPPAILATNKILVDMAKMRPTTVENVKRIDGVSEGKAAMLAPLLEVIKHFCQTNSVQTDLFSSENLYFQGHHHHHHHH

Compound	IC50 [µM]
COc1cc(CN(C(=O)Cc2ccc(-n3cccc3C)cc2F)[C@H]2C=CS(=O)(=O)C2)ccn1 [I-425, N-[(3S)-1,1-dioxo-2,3-dihydro-1lambda6-thiophen-3-yl]-2-[2-fluoro-4-(2-methyl-1H-pyrrol-1-yl)phenyl]-N-[(2-methoxypyridin-4-yl)methyl]acetamide]	> 50
O=C(C1C2CCC1C2)N(Cc1ccncc1)C1C=CS(=O)(=O)C1 (stereo not drawn) [I-619, N-(1,1-dioxo-2,3-dihydro-1lambda6-thiophen-3-yl)-N-[(pyridin-4-yl)methyl]bicyclo[2.1.1]hexane-5-carboxamide]	> 50
O=C(Cc1ccc(C2CC2)cc1)N(Cc1ccncc1)C1C=CS(=O)(=O)C1 (stereo not drawn) [I-287, 2-(4-cyclopropylphenyl)-N-(1,1-dioxo-2,3-dihydro-1lambda6-thiophen-3-yl)-N-[(pyridin-4-yl)methyl]acetamide]	5 to 10
Cc1cccn1-c1ccc(CC(=O)N(Cc2ccc(C(=O)N(C)Cc3cn(Cc4ccc(NC(=O)CCOCCOCCOCCOCCNC(=O)CCCC[C@@H]5SC[C@@H]6NC(=O)N[C@@H]65)cn4)nn3)cc2)C2C=CS(=O)(=O)C2)c(F)c1 (single isomer, unassigned) [II-1]	0.5 to 5
COc1cc(CN(C(=O)C(OCC#N)c2ccc(-c3ccc(F)c(F)c3)cc2F)[C@@H]2C=CS(=O)(=O)C2)ccn1 (single isomer, unassigned) [I-686, (2R*)-2-(cyanomethoxy)-N-[(3R)-1,1-dioxo-2,3-dihydro-1lambda6-thiophen-3-yl]-N-[(2-methoxypyridin-4-yl)methyl]-2-{3,3′,4′-trifluoro-[1,1′-biphenyl]-4-yl}acetamide]	0.5 to 5
CS(=O)(=O)N1CCN(C(C(=O)N(Cc2ccncc2)C2C=CS(=O)(=O)C2)c2ccc(-n3cccc3)cc2)CC1 (stereo not drawn) [I-554, N-(1,1-dioxo-2,3-dihydro-1lambda6-thiophen-3-yl)-2-(4-methanesulfonylpiperazin-1-yl)-N-[(pyridin-4-yl)methyl]-2-[4-(1H-pyrrol-1-yl)phenyl]acetamide]	> 50

The remaining lines, values ahead:

IC50 [µM]	Compound
< 0.5	CC(C)(O)c1cc(CN(C(=O)C(F)(F)c2ccc(-c3ccc(F)c(F)c3)cc2F)[C@@H]2C=CS(=O)(=O)C2)ccn1 [I-38, (R)—N-(1,1-dioxido-2,3-dihydrothiophen-3-yl)-2,2-difluoro-N-((2-(2-hydroxypropan-2-yl)pyridin-4-yl)methyl)-2-(3,3′,4′-trifluoro-[1,1′-biphenyl]-4-yl)acetamide]
< 0.5	CC(C)(O)c1cc(CN(C(=O)Cc2ccc(-n3cccc3)cc2F)C2C=CS(=O)(=O)C2)ccn1 (single isomer, unassigned) [I-40]
0.5 to 5	COc1cc(CN(C(=O)Cc2ccc(C(C)(F)F)cc2)C2C=CS(=O)(=O)C2)ccn1 (stereo not drawn) [I-117, 2-[4-(1,1-difluoroethyl)phenyl]-N-(1,1-dioxo-2,3-dihydro-1lambda6-thiophen-3-yl)-N-[(2-methoxypyridin-4-yl)methyl]acetamide]
0.5 to 5	O=C(Cc1ccc(S(F)(F)(F)(F)F)cc1)N(CCc1nccs1)C1C=CS(=O)(=O)C1 (stereo not drawn) [I-679, N-(1,1-dioxo-2,3-dihydro-1lambda6-thiophen-3-yl)-2-[4-(pentafluoro-lambda6-sulfanyl)phenyl]-N-[2-(1,3-thiazol-2-yl)ethyl]acetamide]
< 0.5	COc1cc(CN(C(=O)C(OCCO)c2ccc(-c3ccc(F)c(F)c3)cc2F)[C@@H]2C=CS(=O)(=O)C2)ccn1 (stereo partly drawn) [I-603, N-[(3R)-1,1-dioxo-2,3-dihydro-1lambda6-thiophen-3-yl]-2-(2-hydroxyethoxy)-N-[(2-methoxypyridin-4-yl)methyl]-2-{3,3′,4′-trifluoro-[1,1′-biphenyl]-4-yl}acetamide]
0.5 to 5	O=C(Cc1ccc(-c2cccc(F)c2)cc1)N(Cc1ccncc1)C1C=CS(=O)(=O)C1 (stereo not drawn) [I-188, N-(1,1-dioxo-2,3-dihydro-1lambda6-thiophen-3-yl)-2-{3′-fluoro-[1,1′-biphenyl]-4-yl}-N-[(pyridin-4-yl)methyl]acetamide]

Reference: US20260297070A1, “CYCLIC [COMPOUND LEFT OUT] WRN INHIBITORS” (Nimbus Wadjet, Inc., priority 2023, published 2026)
